Measurements from publication PMC10412605 (Nature Communications, 2023).

T1: human mSerRS (Homo sapiens, UniProt Q9NP81)
T1 construct: gene SARS2; aa 31-518, without N-terminal 30 residues; N-terminal GST tag (pGEX-6P1) cut by PreScission protease; expressed in E. coli BL21(DE3); homodimer
T1 sequence (Q9NP81 31-518): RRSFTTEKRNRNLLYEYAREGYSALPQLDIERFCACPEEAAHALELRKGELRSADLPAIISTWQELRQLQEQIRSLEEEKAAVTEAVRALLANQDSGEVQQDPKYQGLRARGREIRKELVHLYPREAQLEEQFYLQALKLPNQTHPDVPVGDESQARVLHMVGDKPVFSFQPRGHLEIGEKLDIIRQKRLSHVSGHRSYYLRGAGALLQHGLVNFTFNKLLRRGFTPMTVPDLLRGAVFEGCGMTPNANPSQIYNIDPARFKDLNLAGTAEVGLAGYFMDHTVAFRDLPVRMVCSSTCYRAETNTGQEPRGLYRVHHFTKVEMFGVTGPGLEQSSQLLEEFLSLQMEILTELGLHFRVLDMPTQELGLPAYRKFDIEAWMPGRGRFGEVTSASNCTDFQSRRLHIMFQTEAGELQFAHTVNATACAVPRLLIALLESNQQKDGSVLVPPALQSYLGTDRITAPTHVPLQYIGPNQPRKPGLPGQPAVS

B1: human mSerRS (mitochondrial seryl-tRNA synthetase) (enzyme, UniProt Q9NP81 31-518, looked up)
chain: T1 sequence (Q9NP81 31-518)
notes: also called mt-SerRS; not shown: GST, N-terminal, cleaved

Columns and labels:
[1] = target: T1, human mSerRS; assay: cryo-EM structure, […] Å; assay type: binding; conditions: complex with stabilized mtRNASer(UGA) transcript; both active sites of the dimer occupied; pH 7.0, 7.5 mM MgCl2
[2] = target: the molecule itself; assay: mass photometry; 25 nM mSerRS, 125 nM mtRNASer(UGA), 250 nM SerSA; 20 mM HEPES pH 7.0, 100 mM NaCl, 7.5 mM MgCl2, 1 mM DTT

Row | Molecule | cryo-EM structure, 3.6 Å [1] | stoichiometry N [2]
1 | Nc1ncnc2c1ncn2[C@@H]1O[C@H](COS(=O)(=O)NC(=O)[C@@H](N)CO)[C@@H](O)[C@H]1O [SerSA, 5’-O-[N-(L-seryl)sulfamoyl] adenosine] | Both active sites are occupied by a SerSA ligand | 
2 | B1 |  | 2
